Activity calls are given as the source filed them.
Key:
Assay type in all cases: functional, cell-based
RAW264.7 [1] = assay: Antiinflammatory activity against mouse RAW264.7 cells assessed as inhibition of LPS induced IL-6 release 10 uM preincubated for 2 hrs followed by LPS challenge measured after 24 hrs by sandwich ELISA
RAW264.7 [2] = assay: Antiinflammatory activity against mouse RAW264.7 cells assessed as inhibition of LPS induced TNFalpha release preincubated for 2 hrs followed by LPS challenge measured after 24 hrs by sandwich ELISA
RAW264.7 [3] = assay: Antiinflammatory activity against mouse RAW264.7 cells assessed as inhibition of LPS induced cox-2 expression at 10 uM preincubated for 2 hrs followed by LPS challenge measured after 24 hrs by Western blot method
RAW264.7 [4] = assay: Antiinflammatory activity against mouse RAW264.7 cells assessed as inhibition of LPS induced iNOS expression at 10 uM preincubated for 2 hrs followed by LPS challenge measured after 24 hrs by Western blot method
RAW264.7 [5] = assay: Antiinflammatory activity against mouse RAW264.7 cells assessed as inhibition of LPS induced cox-2 expression at 20 uM preincubated for 2 hrs followed by LPS challenge measured after 24 hrs by Western blot method
RAW264.7 [6] = assay: Antiinflammatory activity against mouse RAW264.7 cells assessed as inhibition of LPS induced iNOS expression at 20 uM preincubated for 2 hrs followed by LPS challenge measured after 24 hrs by Western blot method

Measured: Activity

CC(C)=CCC[C@@](C)(O)[C@H]1CC[C@]2(C)[C@@H]1[C@H](O)C[C@@H]1[C@@]3(C)CCC(=O)C(C)(C)[C@@H]3[C@@H](O[C@@H]3O[C@H](CO)[C@@H](O)[C@H](O)[C@H]3O)C[C@]12C
active: RAW264.7 [1] | RAW264.7 [2] Dose-dependent effect | RAW264.7 [3] | RAW264.7 [4]

Cc1ccc(-c2cc(C(F)(F)F)nn2-c2ccc(S(N)(=O)=O)cc2)cc1
active: RAW264.7 [5] | RAW264.7 [6]
